Experimental data taken from patent publication EP2951180B1, “2,6,7,8 SUBSTITUTED PURINES AS HDM2 INHIBITORS” (Merck Sharp & Dohme Corp., priority 2013, dated 2014).

Molecular target: T1, HDM2 (Homo sapiens, UniProt Q00987)
T1 construct: Thioredoxin (N); made in house; host or cells: E. coli strain BL21(DE3)Rosetta
Test: HDM2 FRET assay (inhibition of binding of FITC labeled p53-pocket peptide to HDM2)
Conditions: Table 9; read-out: FRET IC50
In short: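 TR-FRET with 0.5 nM His-tagged recombinant HDM2, 3 nM FITC-labelled p53 peptide and 0.25 nM Tb-anti-His antibody in PBS, 0.01% BSA, 0.01% Tween-20, 0.1% DMSO. IC50 from em520/em495 ratio over 10-point dilutions, 4-parameter logistic fit.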

T1 sequence (Q00987 17-125): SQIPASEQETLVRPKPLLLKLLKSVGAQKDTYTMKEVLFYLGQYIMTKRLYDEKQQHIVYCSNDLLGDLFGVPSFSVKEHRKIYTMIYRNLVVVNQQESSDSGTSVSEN

| SMILES | IC50 |
| --- | --- |
| CC(C)CC1CCCN1c1nc2nc(-c3noc(=O)[nH]3)nc(N[C@H](C)C3CCC3)c2n1Cc1ccc(C(F)(F)F)cc1 (stereo partly drawn) [Example 9.91, 3-(6-{[(1R)-1-cyclobutylethyl]amino}-8-[2-(2-methylpropyl)pyrrolidin-1-yl]-7-[4-(trifluoromethyl)benzyl]-7H-purin-2-yl)-1,2,4-oxadiazol-5(4H)-one] | 0.0194 µM |
| CC(C)CC1CCN(c2nc3nc(-c4noc(=O)[nH]4)nc(N[C@H](C)C4CCC4)c3n2Cc2ccc(C(F)(F)F)cc2)C1 (stereo partly drawn) [Example 9.92, 3-(6-{[(1R)-1-cyclobutylethyl]amino}-8-[3-(2-methylpropyl)pyrrolidin-1-yl]-7-[4-(trifluoromethyl)benzyl]-7H-purin-2-yl)-1,2,4-oxadiazol-5(4H)-one] | 0.478 µM |
| C[C@@H](Nc1nc(-c2noc(=O)[nH]2)nc2nc(N(C)CC3CCOCC3)n(Cc3ccc(C(F)(F)F)cc3)c12)C1CCC1 [Example 9.93, 3-(6-{[(1R)-1-cyclobutylethyl]amino}-8-[methyl(tetrahydro-2H-pyran-4-ylmethyl)amino]-7-[4-(trifluoromethyl)benzyl]-7H-purin-2-yl)-1,2,4-oxadiazol-5(4H)-one] | 0.047 µM |
| C[C@@H](Nc1nc(-c2noc(=O)[nH]2)nc2nc(N(C)CCc3ccccc3)n(Cc3ccc(C(F)(F)F)cc3)c12)C1CCC1 [Example 9.94, 3-(6-{[(1R)-1-cyclobutylethyl]amino}-8-[methyl(2-phenylethyl)amino]-7-[4-(trifluoromethyl)benzyl]-7H-purin-2-yl)-1,2,4-oxadiazol-5(4H)-one] | 0.0967 µM |
| CCN(CC1CCCCC1)c1nc2nc(-c3noc(=O)[nH]3)nc(N[C@H](C)C3CCC3)c2n1Cc1ccc(C(F)(F)F)cc1 [Example 9.95, 3-(6-{[(1R)-1-cyclobutylethyl]amino}-8-[(cyclohexylmethyl)(ethyl)amino]-7-[4-(trifluoromethyl)benzyl]-7H-purin-2-yl)-1,2,4-oxadiazol-5(4H)-one] | 0.0272 µM |
| CCCN(c1nc2nc(-c3noc(=O)[nH]3)nc(N[C@H](C)C3CCC3)c2n1Cc1ccc(C(F)(F)F)cc1)C1CCCCC1 [Example 9.96, 3-(6-{[(1R)-1-cyclobutylethyl]amino}-8-[cyclohexyl(propyl)amino]-7-[4-(trifluoromethyl)benzyl]-7H-purin-2-yl)-1,2,4-oxadiazol-5(4H)-one] | 0.0162 µM |
| CCN(CCN1CCCC1)c1nc2nc(-c3noc(=O)[nH]3)nc(N[C@H](C)C3CCC3)c2n1Cc1ccc(C(F)(F)F)cc1 [Example 9.97, 3-(6-{[(1R)-1-cyclobutylethyl]amino}-8-[ethyl(2-pyrrolidin-1-ylethyl)amino]-7-[4-(trifluoromethyl)benzyl]-7H-purin-2-yl)-1,2,4-oxadiazol-5(4H)-one] | 0.0239 µM |
| C[C@@H](Nc1nc(-c2noc(=O)[nH]2)nc2nc(N(C)CC3(C)CCN(C)C3)n(Cc3ccc(C(F)(F)F)cc3)c12)C1CCC1 (stereo partly drawn) [Example 9.98, 3-(6-{[(1R)-1-cyclobutylethyl]amino}-8-{[(1,3-dimethylpyrrolidin-3-yl)methyl] (methyl)amino}-7-[4-(trifluoromethyl)benzyl]-7H-purin-2-yl)-1,2,4-oxadiazol-5(4H)-one] | 0.071 µM |
| C[C@@H](Nc1nc(-c2noc(=O)[nH]2)nc2nc(N(C)CC3CCCN(C)C3)n(Cc3ccc(C(F)(F)F)cc3)c12)C1CCC1 (some centres unmarked) [Example 9.99] | 0.045 µM |
| C[C@@H](Nc1nc(-c2noc(=O)[nH]2)nc2nc(N(C)CCCN3CCCC3)n(Cc3ccc(C(F)(F)F)cc3)c12)C1CCC1 [Example 9.100, 3-(6-{[(1R)-1-cyclobutylethyl]amino}-8-[methyl(3-pyrrolidin-1-ylpropyl)amino]-7-[4-(trifluoromethyl)benzyl]-7H-purin-2-yl)-1,2,4-oxadiazol-5(4H)-one] | 0.148 µM |
| CC(C)CC1COCCN1c1nc2nc(-c3noc(=O)[nH]3)nc(N[C@H](C)C3CCC3)c2n1Cc1ccc(C(F)(F)F)cc1 (stereo partly drawn) [Example 9.101, 3-(6-{[(1R)-1-cyclobutylethyl]amino}-8-[3-(2-methylpropyl)morpholin-4-yl]-7-[4-(trifluoromethyl)benzyl]-7H-purin-2-yl)-1,2,4-oxadiazol-5(4H)-one] | 0.0098 µM |
